Data published in patent publication US6372297B1, “Wood preservative oxathiazines” (Uniroyal Chemical Company, Inc., priority 1993, dated 2002).

Assays:
Escherichia coli = test: Wood preservative efficacy against bacteria and yeasts, tryptose agar plates; format: cell-based; design: key: 0 = growth equal to control, 1 = growth inhibited, 2 = no growth
Procedure: (§1) Compositions were prepared by dissolving the compounds shown in Table 1 in 50% ethanol and further diluting with sterile distilled water. […] After cooling, the medium was inoculated with the bacteria listed below. After sufficient growth of the untreated cultures, the compounds were evaluated using the following rating system: 0=growth equal to control 1=inhibition of growth by the compound 2=no growth under the influence of the compound. In this Table, the higher numbers are the most preferred species. Escherichia coli (gram pos)

Cladosporium resinae = test: Wood preservative efficacy against fungi, agar plate colony diameter; format: cell-based
Procedure: (§2) Each plate was inoculated with a spore suspension or with a small piece of agar (1 mm) from the margin of an actively growing colony of the test fungus. The fungi employed are listed below. After incubation at 22° C. and 70% relative humidity during a period long enough to allow significant growth of untreated controls, the diameters of the fungus colonies were measured and scored using the following rating system: 0=free of fungal growth 1=25% of fungal growth compared to untreated 2=50% of fungal growth compared to untreated 3=75% of fungal growth compared to untreated 4=Growth equal to that of untreated The scores measured for wood preservation efficacy of the compounds of this invention are listed in Tables 6a and 6b. In these Tables, the lower numbers are the most preferred species. Cladosporium resinae (syn Hormonocanis resinae, Amorphotheca resinae)

Enterobacter aerogenes = test: Wood preservative efficacy against bacteria and yeasts, tryptose agar plates; format: cell-based; design: key: 0 = growth equal to control, 1 = inhibition, 2 = no growth
Procedure: as §1, with “Enterobacter aerogenes” for “Escherichia coli”, “neg)” for “pos)”

Debaryomyces hansenii = test: as above; format: cell-based; design: key: 0 = growth equal to control, 1 = inhibition, 2 = no growth
Procedure: as §1, with “Debaryomyces hansenii (yeast)” for “Escherichia coli (gram pos)”

Pseudomonas aeruginosa = test: as above; format: cell-based; design: key: 0 = growth equal to control, 1 = growth inhibited, 2 = no growth; conditions: 100 ppm in tryptose agar
Procedure: as §1, with “Pseudomonas aeruginosa” for “Escherichia coli”, “neg)” for “pos)”

Streptomyces albus = test: as above; format: cell-based; design: key: 0 = growth equal to control, 1 = inhibition, 2 = no growth
Procedure: as §1, with “Streptomyces albus” for “Escherichia coli”

Aspergillus niger = test: Wood preservative efficacy against fungi, agar plate colony diameter; format: cell-based
Procedure: as §2, with “Aspergillus niger” for “Cladosporium resinae (syn Hormonocanis resinae, Amorphotheca resinae)”

Aspergillus flavus = test: as above; format: cell-based
Procedure: as §2, with “Aspergillus flavus” for “Cladosporium resinae (syn Hormonocanis resinae, Amorphotheca resinae)”

Coriolus versicolor = test: Activity against wood-rotting fungi, weight loss of impregnated wood blocks; conditions: eight weeks at 22° C. and 70% relative humidity
Procedure: (§3) Sapwood blocks (50×20×6 mm) of Scots pine (Pinus sylvestris) and beech (Fagus sylvatica) were oven-dried at 104° C. The blocks were cooled, weighed, and impregnated with the test compound, by a vacuum treatment. Each concentration of the test compounds was applied to 7 replicates. By reweighing after each treatment, the uptake of active ingredient was calculated. Badly treated wood was discarded. For fixation of the active compound, the treated blocks were kept in a closed container for two weeks. The container was opened and the wood was dried for two more weeks. The test blocks were sterilized by gamma-irradiation (1.2 Mrad). Each treated block was placed on a mesh in an inoculated Petri dishes of malt agar, with an untreated (control) block. All the blocks were exposed to fungal attack for eight weeks at 22° C. and 70% relative humidity. At the end of the incubation period, the blocks were freed from adhering mycelium, oven dried at 104° C., allowed to cool, and weighed. The percentage weight loss of each block was calculated. Invalid results, due to waterlogging or insufficient moisture content, were not taken into account. The average weight loss of the treated blocks compared to the control blocks appears in Table 8.

Coniophora puteana = test: as above; conditions: eight weeks at 22° C. and 70% relative humidity
Procedure: as §3

[1] = higher treatment level, uptake 1136-1222 g.a.i./m3, control blocks lost 26-44%
[2] = lower treatment level, uptake 450-496 g.a.i./m3, control blocks lost 29-38%
[3] = higher treatment level, uptake 1271-1534 g.a.i./m3, control blocks lost 20-37%
[4] = lower treatment level, uptake 526-582 g.a.i./m3, control blocks lost 17-42%

Structure (SMILES)	Score of bactericidal activity, E. Coli (Escherichia coli; 100 ppm in tryptose agar)	Score of fungicidal activity, CL RESINAE (Cladosporium resinae; Test dosage 10 ppm, Table 6A)	Score of bactericidal activity, E. aerogenes (Enterobacter aerogenes; 100 ppm in tryptose agar)	Score of bactericidal activity, D. hansenii (Debaryomyces hansenii; 10 ppm in tryptose agar)	Score of bactericidal activity, D. hansenii (Debaryomyces hansenii; 100 ppm in tryptose agar)	Score of bactericidal activity, P. aeruginosa (Pseudomonas aeruginosa)	Score of bactericidal activity, S. albus (Streptomyces albus; 100 ppm in tryptose agar)	Score of fungicidal activity, A. NIGER (Aspergillus niger; Test dosage 10 ppm, Table 6A)	Score of fungicidal activity, A. FLAVUS (Aspergillus flavus; Test dosage 10 ppm, Table 6A)	% weight loss, treated blocks (Coriolus) (Coriolus versicolor; [1]) [%]	% weight loss, treated blocks (Coriolus) (Coriolus versicolor; [2]) [%]	% weight loss, treated blocks (Coniophora) (Coniophora puteana; [3]) [%]	% weight loss, treated blocks (Coniophora) (Coniophora puteana; [4]) [%]	Score of bactericidal activity, E. Coli (Escherichia coli; 10 ppm in tryptose agar)	Score of fungicidal activity, CL RESINAE (Cladosporium resinae; 10 ppm, Table 6B)	Score of bactericidal activity, E. aerogenes (Enterobacter aerogenes; 10 ppm in tryptose agar)	Score of bactericidal activity, S. albus (Streptomyces albus; 10 ppm in tryptose agar)	Score of fungicidal activity, A. NIGER (Aspergillus niger; 10 ppm, Table 6B)	Score of fungicidal activity, A. FLAVUS (Aspergillus flavus; 10 ppm, Table 6B)
CC(=O)c1ccc(C2=NOCC[S+]2[O-])cc1 (stereo not drawn) [Compound 14]	2	0	0	0	2	1	2	3 (75% of growth compared to untreated control)	2 (50% of growth compared to untreated control)										
[O-][S+]1CCON=C1c1cccs1 (stereo not drawn) [Compound 8]	2	2 (50% of growth compared to untreated control)	2	2	2	1	2	1 (25% of growth compared to untreated control)	1 (25% of growth compared to untreated control)	3.5	24	0.7	0.9						
C[S+]1CCON=C1c1ccc(Cl)cc1 (stereo not drawn) [Compound 1]	2	2 (50% of growth compared to untreated control)	0	2	2	0	2	0	0										
CCOC(=O)c1ccc(C2=NOCC[S+]2[O-])cc1 (stereo not drawn) [Compound 22]	0		0			0	2							0	4	0	1	3 (75% of growth compared to untreated control)	2 (50% of growth compared to untreated control)
CCOc1ccc(C2=NOCC[S+]2C)cc1 (stereo not drawn) [Compound 28]	0		0			0	2							0	4	0	1	4	3 (75% of growth compared to untreated control)
COC(=O)c1cccc(C2=NOCC[S+]2[O-])c1 (stereo not drawn) [Compound 26]	0		0			0	2							0	4	0	0	4	4
C[S+]1CCON=C1c1cc(Cl)cc(Cl)c1 (stereo not drawn) [Compound 19]	0		0			0	2			87	35	−0.3	0.9	0	0	0	0	0	0
[O-][S+]1CCON=C1c1ccc(Cl)c(Cl)c1 (stereo not drawn) [Compound 4]	2	0	0	2	2	0	2	0	0	35	35	0.3	0.3						
C[S+]1CCON=C1c1ccc(C(F)(F)F)cc1 (stereo not drawn) [Compound 25]	0		0			0	2			21	37	−0.8	−0.7	0	0	0	2	0	0
